{"source": "patent US6809112B2", "about": "“Method of treating sexual disturbances” (priority 1999, dated 2004)", "key": {"[1]": {"test_system": "patient with idiopathic epilepsy and hypogonadism, secondary to chronic carbamazepine treatment", "test": "Treatment of reduced sexual function in a person with idiopathic epilepsy (Examples G, O)", "type": "in vivo, human", "conditions": "3 mg/dose 0.5 hr before sexual activity, 2-3 times per week; carbamazepine 500 mg/day; examined after one month", "protocol": "A 75 kg patient has idiopathic epilepsy. They first presented with primary generalized seizures and was diagnosed with idiopathic epilepsy. They have been treated with carbamazepine. Currently they receive 500 mg/day of the drug. They have had two tonic-clonic seizures during the preceding year. The patient complains of diminished sexual interest in their spouse of 8 years. On those occasions when they attempt sexual intercourse, they are able to maintain an erection sufficient for intercourse one-third of the time. […] They report that they rarely have sexual fantasies and rarely masturbates. […] They currently take no prescription drugs other than carbamazepine. […] Plasma testosterone and sex hormone binding globulin assays are performed. The plasma testosterone level is 25 nM, which is considered normal. The plasma sex hormone binding globulin level is 55 nM, which is considered elevated compared to the normal range. The patient is diagnosed with hypogonadism, secondary to chronic carbamazepine treatment (Epilepsia 36: 366-370, 1995). (5R)-(methylamino)-5,6-dihydro-4H-imidazo[4,5,1-ij]quinolin-2(1H)-one (Z)-2-butenedioate (1:1) is prescribed at 3 mg/dose to be taken 0.5 hr before the patient intends to engage in sexual activity. The patient is instructed that they may use the drug on a daily basis, if this is the intended frequency of sexual activity. The patient is examined after one month. They report that they take the drug 2-3 times per week. […] The patient is instructed to continue with the treatment."}, "[2]": {"test_system": "patient with Hypoactive Sexual Desire Disorder", "test": "Treatment of Hypoactive Sexual Desire Disorder in a patient (Examples A, I)", "type": "in vivo, human", "conditions": "1 mg/dose 0.5 hr before sexual activity, examined after one month, patient report", "excerpt": "A 44 kg, patient is referred by their psychologist for evaluation for and medical treatment of hypoactive sexual desire disorder. The patient recently began to co-habitate with a person. They consulted a clinical psychologist because of distress over frequent arguments with their partner. These arguments concern their frustration that their partner is unwilling to marry them and the partner's accusations that they are sexually unresponsive and “boring in bed.” The patient reports that although they desire to continue the relationship, they have little or no interest in sexual activity with this partner. The partner initiates all sexual activity in the relationship and they comply so that the relationship will continue. They state that their partner desires sexual intercourse about once per day. Occasionally, the couple's frequency of sexual intercourse is as much as twice per day. […] They currently take no prescription drugs other than low dose birth control pills. […] The patient is diagnosed as having Hypoactive Sexual Desire Disorder of acquired onset due to situational factor (Diagnostic and Statistical Manual of Mental Disorders, Fourth Edition, 1994). (5R)-(methylamino)-5,6-dihydro-4H-imidazo[4,5,1-ij]quinolin-2(1H)-one (Z)-2-butenedioate (1:1) is prescribed at 1 mg/dose to be taken 0.5 hr before the patient intends to engage in sexual activity. The patient is instructed that they may use the drug on a daily basis, if they and their partner desire sexual activity at this frequency. They are also instructed that on occasions they may use the drug twice in a single day if this is the intended frequency of intercourse. The patient is examined after one month. They report that they use the drug once, and occasionally twice, per day. […] They also report that they and their partner argue less frequently and that their partner no longer accuses them of being disinterested in sexual relations. The patient is instructed to continue using the drug."}, "[3]": {"test_system": "male and female Giant Pandas", "test": "Mating of animals of commercial value (Examples F, N)", "type": "in vivo, Giant Panda", "conditions": "0.05 mg of free base equivalents per kilogram of body weight in diet, one occasion; for induction of mating (treatment effect): one hour after ingesting", "excerpt": "An adult male Giant Panda on temporary loan from a foreign zoo is desired to have breed to an adult female Giant Panda which is normally resident at the zoo. Because of the commercial value of a potential off-spring it is desirable that the animals mate during the time the adult male is on loan. […] As an alternative to anesthetizing the animals for a facilitated transfer of semen between the animals, the male and female Giant Pandas have (5R)-(methylamino)-5,6-dihydro-4H-imidazo[4,5,1-ij]quinolin-2(1H)-one (Z)-2-butenedioate (II) added to their diet on one occasion. The concentration of drug in the diet is calculated to deliver 0.05 mg of free base equivalents of (5R)-(methylamino)-5,6-dihydro-4H-imidazo[4,5,1-ij]quinolin-2(1H)-one (Z)-2-butenedioate (1:1) per kilogram of body weight."}, "[4]": {"test_system": "patient with Female Sexual Arousal Disorder", "test": "Treatment of Female Sexual Arousal Disorder in a patient (Examples B, J)", "type": "in vivo, human", "conditions": "3 mg/dose 0.5-1 hr before sexual activity; examined after one month; patient report", "excerpt": "A 64 kg, patient is complaining of vaginal dryness and mild discomfort during sexual intercourse. The patient recently began a relationship with a person. Their partner complained of their vaginal dryness and poor vaginal expansion during sexual intercourse. Their partner has made several comments about this during the previous two months and the patient is concerned that their partner is dissatisfied with their lack of sexual responsiveness and may end the relationship. The patient reports that they desire to continue the relationship. The patient has had several previous sexual relationships. They report that vaginal dryness and some discomfort with vaginal intercourse has occurred during their past sexual relationships. […] They find their current partner attractive and sexual desirable. […] During these episodes they usually have an orgasm. Lubrication is not a problem when they masturbate. […] They currently take no prescription drugs other than low dose birth control pills. […] The patient is diagnosed as having Female Sexual Arousal Disorder that is situational due to psychological factors (Diagnostic and Statistical Manual of Mental Disorders, Fourth Edition, 1994). (5R)-(methylamino)-5,6-dihydro-4H-imidazo[4,5,1-ij]quinolin-2(1H)-one (Z)-2-butenedioate (1:1) is prescribed at 3 mg/dose to be taken 0.5-1 hr before the patient intends to engage in sexual activity. The patient is instructed that they may use the drug on a daily basis, if this is the intended frequency of sexual activity. The patient is examined after one month. They report that they use the drug prior to intercourse. […] The patient is instructed to continue using the drug."}}, "data": [{"compound": "CN[C@@H]1Cc2cccc3[nH]c(=O)n(c23)C1.O=C(O)/C=C\\C(=O)O", "note": "[(5R)-(methylamino)-5,6-dihydro-4H-imidazo[4,5,1-ij]quinolin-2(1H)-one (Z)-2-butenedioate (1:1)]", "values": [{"measurement": "sexual interest and initiation of sexual activity", "setting": "[1]", "value": "feels more interest in sex and usually initiates sexual activity with their spouse"}, {"measurement": "treatment effect (sexual relationship)", "setting": "[1]", "value": "enjoys a normal sexual relationship"}, {"measurement": "frequency of sexual fantasies", "setting": "[2]; once, occasionally twice, per day", "value": "3-4 occasions per week"}, {"measurement": "initiation of sexual activity", "setting": "[2]", "value": "occasionally initiates sexual activity with their partner"}, {"measurement": "treatment effect (sexual relationship)", "setting": "[2]", "value": "enjoys an improved sexual relationship with their partner"}, {"measurement": "pregnancy and birth from the mating", "setting": "[3]", "value": "A pregnancy and subsequent birth of an off-spring results"}, {"measurement": "induction of mating (treatment effect)", "setting": "[3]", "value": "the animals engage in sexual intercourse"}, {"measurement": "pain during initiation of vaginal penetration", "setting": "[4]", "value": "no longer has pain"}, {"measurement": "treatment effect (sexual relationship)", "setting": "[4]", "value": "enjoys an improved sexual relationship with their partner"}, {"measurement": "vaginal dryness", "setting": "[4]", "value": "no longer a problem"}]}, {"compound": "CN[C@@H]1Cc2cccc3[nH]c(=S)n(c23)C1", "note": "[(5R)-5-(Methylamino)-5,6-dihydro-4H-imidazo[4,5,1-ij]quinoline-2(1H)-thione]", "values": [{"measurement": "treatment effect (sexual relationship)", "setting": "[1]", "value": "same positive treatment effect"}, {"measurement": "treatment effect (sexual relationship)", "setting": "[2]", "value": "same positive treatment effect"}, {"measurement": "induction of mating (treatment effect)", "setting": "[3]", "value": "same positive treatment effect"}, {"measurement": "treatment effect (sexual relationship)", "setting": "[4]", "value": "same positive treatment effect"}]}]}
